A word on the Ki: it is a dissociation constant, usually derived from enzyme kinetics or from competition with a known ligand. Low values mean higher affinity, high ones lower affinity. What is called IC50 is the point on the concentration scale where inhibition reaches its midpoint.

For one test, the target named is V1a (Homo sapiens, UniProt P37288). As to the kind of experiment: Human vasopression V1a receptor binding assay. The arrangement: host or cells: CHO cells (hV1a cell line), whole adherent cells. As to conditions: hV1a cell line (CHO); for Ki: Table 18; for IC50: 1 nM 3H-AVP, Table 17, read-out: V1a Binding Affinity (IC50 (nM)). Summed up:
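Whole CHO cells stably expressing human V1a receptor competed 1 nM 3H-AVP against 10-fold serial compound dilutions (DMSO) in pH 7.0 Hepes/BSA/DMEM buffer, 45 min at 37° C.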

The next test has as its target T1, vasopressin V1a receptor (Homo sapiens, UniProt P37288).
T1 construct: host or cells: CHO cells (hV1a cell line), whole adherent cells
Description: Inhibition of phosphatidylinositol turnover. The test is classed as cell-based. As to conditions: vasopressin-mediated turnover of phosphatidylinositol, hV1a cells. An excerpt:
Inhibition of phosphatidylinositol turnover. The physiological effects of vasopressin are mediated through specific G-protein coupled receptors. The vasopressin V1a receptor is coupled to the Gq/G11 family of G proteins and mediates phosphatidylinositol turnover. The agonist or antagonist character of the compounds of the invention may be determined by their ability to inhibit vasopressin-mediated turnover of phosphatidylinositol by the procedure described in the following paragraphs.
Cell culture and labeling of cells. Three days prior to the assay, near-confluent cultures of hV1a cells were dissociated and seeded in 6-well tissue culture plates, about 100 wells being seeded from each 75 cm^2 flask (equivalent to 12:1 split ratio).
Incubations. All assays were in triplicate except for basal and 10 nM AVP (both n=6). AVP ((arginine vasopressin), Peninsula Labs, Belmont, Calif., USA (#8103)) was dissolved in 0.1N acetic acid. Test agents were dissolved in DMSO and diluted in DMSO to 200 times the final test concentration. […] The order of incubations was randomized. Incubations were initiated by removing the prelabeling medium, washing the monolayer once with 1 mL of 0.9% NaCl, and transferring the contents of the assay tubes to corresponding wells. The plates were incubated for 1 hour at 37° C. Incubations were terminated by removing the incubation medium and adding 500 μL of ice cold 5% (w/v) trichloroacetic acid and allowing the wells to stand for 15 min.
Measurement of [^3H]inositol phosphates. BioRad Poly-Prep Econo-Columns were packed with 0.3 mL of AG 1 X-8 100-200 formate form resin. Resin was mixed 1:1 with water and 0.6 mL added to each column. Columns were then washed with 10 mL water. Scintillation vials (20 mL) were placed under each column. For each well, the contents were transferred to a minicolumn, after which the well was washed with 0.5 mL distilled water, which was also added to the minicolumn. The columns were then washed twice with 5 mL of 5 mM myo-inositol to elute free inositol. Aliquots (1 mL) were transferred to 20 mL scintillation vials and 10 mL of Beckman Ready Protein Plus added. After the myo-inositol wash was complete, empty scintillation vials were placed under the columns, and [^3H]inositol phosphates were eluted with three additions of 1 mL 0.5 M ammonium formate containing 0.1 N formic acid. Elution conditions were optimized to recover inositol mono-, bis-, and trisphosphates, without eluting the more metabolically inert tetrakis-, pentakis-, and hexakis-phosphates. To each sample was added 10 mL of a high salt capacity scintillation fluid such as Tru-Count High Salt Capacity or Packard Hionic-Fluor. Inositol lipids were measured by adding 1 mL of 2% sodium dodecyl sulfate (SDS) to each well, allowing the wells to stand for at least 30 min., and transferring the solution to 20 mL scintillation vials, to which 10 mL Beckman Ready Protein Plus scintillation fluid was then added. Samples were counted in a Beckman LS 3801 liquid scintillation counter for 10 min. Total inositol incorporation for each well was calculated as the sum of free inositol, inositol phosphates, and inositol lipids.
Data analysis: concentration-inhibition experiments. Concentration-response curves for AVP and concentration-inhibition curves for test agents versus 10 nM AVP were analyzed by nonlinear least-squares curve-fitting to a 4-parameter logistic function. Parameters for basal and maximal inositol phosphates, EC50 or IC50, and Hill coefficient were varied to achieve the best fit. The curve-fitting was weighted under the assumption that the standard deviation was proportional to dpm of radioactivity. Full concentration-response curves for AVP were run in each experiment, and IC50 values were converted to Ki values by application of the Cheng-Prusoff equation, based on the EC50 for AVP in the same experiment. Inositol phosphates were expressed as dpm per 10^6 dpm of total inositol incorporation.

Structures are written as SMILES.

V1a, sequence (P37288 whole entry): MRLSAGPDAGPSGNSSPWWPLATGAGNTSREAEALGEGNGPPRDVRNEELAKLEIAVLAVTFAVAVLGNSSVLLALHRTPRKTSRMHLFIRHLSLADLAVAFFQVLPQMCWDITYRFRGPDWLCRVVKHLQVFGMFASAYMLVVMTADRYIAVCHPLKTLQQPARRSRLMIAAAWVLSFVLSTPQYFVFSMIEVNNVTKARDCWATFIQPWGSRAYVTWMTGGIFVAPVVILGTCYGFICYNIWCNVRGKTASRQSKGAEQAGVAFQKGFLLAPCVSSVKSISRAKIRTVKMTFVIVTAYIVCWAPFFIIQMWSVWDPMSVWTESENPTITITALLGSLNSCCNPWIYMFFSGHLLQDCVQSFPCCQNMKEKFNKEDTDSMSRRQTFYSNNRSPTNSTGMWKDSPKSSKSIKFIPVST
T1 sequence (P37288 whole entry): as above

Turning to `O=C(NCc1cccc(C(F)(F)F)c1)C(CCC(=O)N1CCN(CCc2ccccc2)CC1)N1C(=O)C(N2C(=O)OCC2c2ccccc2)C1C=Cc1ccccc1` (single isomer, unassigned) [Example 35], at V1a, the Ki came out at 1.17 nM. The “agonist or antagonist character” value at vasopressin V1a receptor is reported as “vasopressin V1a antagonists”. The matching figures for `O=C(NCc1cccc(C(F)(F)F)c1)[C@@H](CC(=O)N1CCC(N2CCCCC2)CC1)N1C(=O)[C@@H](N2C(=O)OC[C@@H]2c2ccccc2)[C@H]1/C=C/c1ccccc1` [Example 133]: 1.49 nM and “vasopressin V1a antagonists”.

For `O=C(NCc1cccc(C(F)(F)F)c1)[C@H](CCC(=O)N1CCC(N2CCCCC2)CC1)N1C(=O)[C@@H](N2C(=O)OC[C@@H]2c2ccccc2)[C@H]1/C=C/c1ccccc1` [Example 88], at V1a, the IC50 came to 2.4 nM and the Ki worked out at 1.45 nM. Moreover, the “agonist or antagonist character” value on vasopressin V1a receptor is “vasopressin V1a antagonists”. On V1a, `O=C(NCc1cccc(C(F)(F)F)c1)C(CCC(=O)N1CCN(C2CCCCC2)CC1)N1C(=O)C(N2C(=O)OCC2c2ccccc2)C1C=Cc1ccccc1` (single isomer, unassigned) [Example 110] yielded a Ki of 0.27 nM. In addition, the “agonist or antagonist character” value at vasopressin V1a receptor is “vasopressin V1a antagonists”. On to `CC(C)(C)OC(=O)N[C@@H]1CCN(C2CCN(C(=O)CC[C@@H](C(=O)NC3(c4ccccc4)CCCC3)N3C(=O)[C@@H](N4C(=O)OC[C@@H]4c4ccccc4)[C@H]3/C=C/c3ccccc3)CC2)C1` [Example 221AX], for which, on V1a, the IC50 stood at 83 nM and the affinity corresponds to a Ki of 51 nM. On to `O=C(NCc1cccc(Cl)c1Cl)[C@H](CCC(=O)N1CCN(C2CCCCC2)CC1)N1C(=O)[C@@H](N2C(=O)OC[C@@H]2c2ccccc2)[C@H]1/C=C/c1ccccc1` [Example 176], for which, on V1a, the IC50 amounted to 0.61 nM. As for `CC(C)N1CCN(C(=O)C(C(=O)NCc2cccc(C(F)(F)F)c2)N2C(=O)[C@@H](N3C(=O)OC[C@@H]3c3ccccc3)[C@H]2/C=C/c2ccccc2)CC1` (mixture of isomers) [Example 41], at V1a, the affinity corresponds to a Ki of 18.2 nM.

At V1a, `Cc1ccc(C2(NC(=O)[C@H](CCC(=O)N3CCN(C4CCCCC4)CC3)N3C(=O)[C@@H](N4C(=O)OC[C@@H]4c4ccccc4)[C@H]3/C=C/c3ccccc3)CC2)cc1` [Example 221AP] gave an inhibitory constant (Ki) of 3.8 nM. With `COc1ccc(C2(NC(=O)[C@H](CCC(=O)N3CCN(C4CCCCC4)CC3)N3C(=O)[C@@H](N4C(=O)OC[C@@H]4c4ccccc4)[C@H]3/C=C/c3ccccc3)CC2)cc1` [Example 221AO], the IC50 on V1a is ~100 nM. As for `O=C(C(COCc1ccccc1)N1C(=O)[C@@H](N2C(=O)OC[C@@H]2c2ccccc2)[C@H]1/C=C/c1ccccc1)N1CCN(C2CCCCC2)CC1` (mixture of isomers) [Example 232D], at V1a, the IC50 stood at 2.04 nM and the affinity, expressed as Ki, was 1.25 nM. The matching figures for `O=C(N[C@@H]1CCc2ccccc21)[C@H](CCC(=O)N1CCN(C2CCCCC2)CC1)N1C(=O)[C@@H](N2C(=O)OC[C@@H]2c2ccccc2)[C@H]1/C=C/c1ccccc1` [Example 221S]: 5.03 nM and 3.08 nM. Turning to `O=C(NCc1cccc(C(F)(F)F)c1)[C@H](CCC(=O)N1CCN(CCN2CCOCC2)CC1)N1C(=O)[C@@H](N2C(=O)OC[C@@H]2c2ccccc2)[C@H]1/C=C/c1ccccc1` [Example 112], the Ki at V1a was determined as 0.8 nM. This counts as sub-nanomolar.

As for `O=C(C[C@@H](C(=O)NCc1cccc(C(F)(F)F)c1)N1C(=O)[C@@H](N2C(=O)OC[C@@H]2c2ccccc2)[C@H]1CCc1ccccc1)NC1CCN(Cc2ccccc2)CC1` [Example 235, 2(S)-[[(1-Benzylpiperidin-4-yl)amino]carbonylmethyl]-2-[3(S)-(4(S)-phenyloxazolidin-2-on-3-yl)-4(R)-(2-phenyleth-1-yl)azetidin-2-on-1-yl]acetic acid N-(3-trifluoromethylbenzyl)amide], at V1a, the IC50 turned out to be 37 nM and the Ki stood at 23 nM. With `Cc1ccc(C2(NC(=O)[C@H](CCC(=O)N3CCN(C4CCCCC4)CC3)N3C(=O)[C@@H](N4C(=O)OC[C@@H]4c4ccccc4)[C@H]3/C=C/c3ccccc3)CCCC2)cc1` [Example 221AS], the IC50 on V1a was ~20 nM. In turn, `O=C(NCc1cccc(C(F)(F)F)c1)C(C(=O)N1CCN(C2CCCCC2)CC1)N1C(=O)[C@@H](N2C(=O)OC[C@@H]2c2ccccc2)[C@H]1/C=C/c1ccccc1` (mixture of isomers) [Example 42] had a Ki on V1a of 26.4 nM. In other words, the double-digit nanomolar range. In the case of `CCCCN1CCN(C(=O)CC[C@@H](C(=O)NCc2cccc(C(F)(F)F)c2)N2C(=O)[C@@H](N3C(=O)OC[C@@H]3c3ccccc3)[C@H]2/C(Cl)=C/c2ccccc2)CC1` [Example 229], on V1a, the IC50 was 1.53 nM and affinity was put at a Ki of 0.94 nM. As to `O=C(NCc1cccc(Cl)c1)[C@H](CCC(=O)N1CCN(C2CCCCC2)CC1)N1C(=O)[C@@H](N2C(=O)OC[C@@H]2c2ccccc2)[C@H]1/C=C/c1ccccc1` [Example 187], the IC50 at V1a was 1 nM.

The compound `O=C(NCc1cccc(C(F)(F)F)c1)[C@H](CC(=O)N1CCC(N2CCCCC2)CC1)N1C(=O)[C@@H](N2C(=O)OC[C@@H]2c2ccccc2)[C@H]1/C=C/c1ccccc1` [Example 44] gave a Ki on V1a of 1.89 nM. Besides, on vasopressin V1a receptor, the “agonist or antagonist character” value is “vasopressin V1a antagonists”.

Turning to `O=C(NCc1cccnc1)[C@H](CCC(=O)N1CCN(C2CCCCC2)CC1)N1C(=O)[C@@H](N2C(=O)OC[C@@H]2c2ccccc2)[C@H]1/C=C/c1ccccc1` [Example 209], at V1a, the IC50 was found to be 16 nM and affinity was put at a Ki of 9.8 nM. The matching figures for `CCN1CCN(C(=O)CC[C@@H](C(=O)N[C@@H]2CCCc3ccccc32)N2C(=O)[C@@H](N3C(=O)OC[C@@H]3c3ccccc3)[C@H]2/C=C/c2ccccc2)CC1` [Example 221BD]: 2.7 nM and 1.66 nM. Regarding `O=C(NC1(c2ccccc2)CCCC1)[C@H](CCC(=O)N1CCN(C2CCCCC2)CC1)N1C(=O)[C@@H](N2C(=O)OC[C@@H]2c2ccccc2)[C@H]1/C=C/c1ccccc1` [Example 217], at V1a, the IC50 is 3.17 nM and the Ki worked out at 1.94 nM.

Take `CC(NC(=O)[C@H](CCC(=O)N1CCN(C2CCCCC2)CC1)N1C(=O)[C@@H](N2C(=O)OC[C@@H]2c2ccccc2)[C@H]1/C=C/c1ccccc1)c1ccccc1` (stereo partly shown) [Example 195]: on V1a, the half-inhibitory concentration (IC50) is < 50 nM. With `O=C(Nc1cccc2c1CCC2)[C@H](CCC(=O)N1CCN(C2CCCCC2)CC1)N1C(=O)[C@@H](N2C(=O)OC[C@@H]2c2ccccc2)[C@H]1/C=C/c1ccccc1` [Example 221AY], the IC50 on V1a is ~30 nM. The compound `CCCCN1CCN(C(=O)CCC(C(=O)NCc2cccc(C(F)(F)F)c2)N2C(=O)C(N3C(=O)OCC3c3ccccc3)C2C=Cc2ccccc2)CC1` (single isomer, unassigned) [Example 103] gave a Ki at V1a of 0.49 nM. The same measure, in the same setting: as for `CCCCN1CCN(C(=O)CC[C@H](C(=O)NCc2cccc(C(F)(F)F)c2)N2C(=O)[C@@H](N3C(=O)OC[C@@H]3c3ccccc3)[C@H]2/C=C/c2ccccc2)CC1` [Example 137], the figure is 10.5 nM. `COc1cc(CNC(=O)[C@H](CCC(=O)N2CCN(C3CCCCC3)CC2)N2C(=O)[C@@H](N3C(=O)OC[C@@H]3c3ccccc3)[C@H]2/C=C/c2ccccc2)cc(OC)c1` [Example 201]: on V1a, the IC50 amounted to 10.5 nM and the Ki was found to be 6.43 nM. The corresponding values for `O=C(NCc1cccc(OC(F)(F)F)c1)[C@H](CCC(=O)N1CCN(C2CCCCC2)CC1)N1C(=O)[C@@H](N2C(=O)OC[C@@H]2c2ccccc2)[C@H]1/C=C/c1ccccc1` [Example 172] are 4.5 nM and 2.78 nM.

For the origin of these results see patent US9597314B2, “Beta-lactamylalkanoic acids for treating premenstrual disorders” (AZEVAN PHARMACEUTICALS, INC., priority 2005, dated 2017).
